Reference: US20250270199A1, “THIAZOLE DERIVATIVES AND METHODS OF USING THE SAME” (Arkansas State University - Jonesboro, priority 2022, published 2025)
Values after ≈ are worked out from the molar mass of the structure shown. Values joined by “and” are separate entries in the source; they are usually repeats but may differ in a detail not shown here. Identical values can stand only once.

How the values were obtained:
[1] = system: S. aureus ATCC 33591 (Sa 91); experiment: MIC, broth microdilution, Sa 91; assay type: cell-based; details: Staphylococcus aureus, ATCC33591; Table 1, HT series; read-out: Minimum inhibitory concentration (MIC) Sa 91
Experimental: (§1) The broth microdilution method was utilized to determine MIC values of novel thiazole derivatives against different clinically important Gram-positive bacteria according to the guidelines outlined by the Clinical and Laboratory Standards Institute (CLSI) as reported in our recent papers.^1-5 The starting concentration of compounds for MIC determination was 64 μg/mL serially diluted down the wells and the MIC values were recorded in duplicates in three independent experiments on different days.

[2] = system: Sa UAMS-1 MRSA ATCC 49230 (Sa UAMS); experiment: MIC, broth microdilution, Sa UAMS; assay type: cell-based, S. aureus; details: Staphylococcus aureus; Table 1, HT series; read-out: Minimum inhibitory concentration (MIC) Sa UAMS
Experimental: as §1

[3] = system: B. subtilis ATCC 6633 (Bs); experiment: MIC, broth microdilution, Bs; assay type: cell-based; details: Bacillus subtilis, ATCC6633; Table 1, HT series; read-out: Minimum inhibitory concentration (MIC) Bs
Experimental: as §1

[4] = system: S. aureus ATCC 33592 (Sa 92); experiment: MIC, broth microdilution, Sa 92; assay type: cell-based; details: Staphylococcus aureus, ATCC33592; Table 1, HT series; read-out: Minimum inhibitory concentration (MIC) Sa 92
Experimental: as §1

[5] = system: S. aureus ATCC 700699 (Sa 99); experiment: MIC, broth microdilution, Sa 99; assay type: cell-based; details: replicates from different days separated by comma; for MIC: Staphylococcus aureus, ATCC700699, Table 1, HT series, read-out: Minimum inhibitory concentration (MIC) Sa 99; for Minimum inhibitory concentration (MIC) Sa 99: Table 1, HT series
Experimental: as §1

[6] = system: S. aureus LAC MRSA (Sa LAC); experiment: MIC, broth microdilution, Sa LAC; assay type: cell-based; details: Staphylococcus aureus, Table 1, HT series, read-out: Minimum inhibitory concentration (MIC) Sa LAC
Experimental: as §1

[7] = system: S. aureus subsp. aureus Rosenbach BAA-1717 (Sa USA 300); experiment: MIC, broth microdilution, Sa USA 300; assay type: cell-based; details: Staphylococcus aureus; Table 1, HT series; read-out: Minimum inhibitory concentration (MIC) SA USA 300
Experimental: as §1

[8] = system: S. epidermidis ATCC 700296 (Se); experiment: MIC, broth microdilution, Se; assay type: cell-based; details: Staphylococcus epidermidis, ATCC700296; Table 1, HT series; read-out: Minimum inhibitory concentration (MIC) Se
Experimental: as §1

[9] = system: S. aureus subsp. aureus Rosenbach ATCC 25904 (SA Newman); experiment: MIC, broth microdilution, SA Newman; assay type: cell-based; details: Staphylococcus aureus; Table 1, HT series; read-out: Minimum inhibitory concentration (MIC) Sa Newman
Experimental: as §1

[10] = system: S. aureus ATCC 25923 (Sa 23); experiment: MIC, broth microdilution, Sa 23; assay type: cell-based; details: replicates from different days separated by comma; for MIC: Staphylococcus aureus, ATCC25923, Table 1, HT series, read-out: Minimum inhibitory concentration (MIC) Sa 23; for Minimum inhibitory concentration (MIC) Sa 23: Table 1, HT series
Experimental: as §1

[11] = system: E. faecalis ATCC 51299 (Efs 99); experiment: MIC, broth microdilution, Efs 99; assay type: cell-based; details: Enterococcus faecalis, ATCC51299; Table 1, HT series; read-out: Minimum inhibitory concentration (MIC) Efs 99
Experimental: as §1

[12] = system: E. faecalis ATCC 29212 (Efs 12); experiment: MIC, broth microdilution, Efs 12; assay type: cell-based; details: replicates from different days separated by comma; for Minimum inhibitory concentration (MIC) Efs 12: Table 1, HT series; for MIC: Enterococcus faecalis, ATCC29212, Table 1, HT series, read-out: Minimum inhibitory concentration (MIC) Efs 12
Experimental: as §1

[13] = system: E. faecium ATCC 700221 (Efm 21); experiment: MIC, broth microdilution, Efm 21; assay type: cell-based; details: Enterococcus faecium, ATCC700221, Table 1, HT series; read-out: Minimum inhibitory concentration (MIC) Efm 21
Experimental: as §1

[14] = system: S. aureus ATCC BAA-2312 (Sa 12); experiment: MIC, broth microdilution, Sa 12; assay type: cell-based; details: Staphylococcus aureus, ATCCBAA2312; Table 1, HT series; read-out: Minimum inhibitory concentration (MIC) Sa 12
Experimental: as §1

| Compound | MIC [1] [µg/mL] | MIC [2] [µg/mL] | MIC [3] [µg/mL] | MIC [4] [µg/mL] | MIC [5] [µg/mL] | Minimum inhibitory concentration (MIC) Sa 99 [5] | MIC [6] [µg/mL] | MIC [7] [µg/mL] | MIC [8] [µg/mL] | MIC [9] [µg/mL] | MIC [10] [µg/mL] | Minimum inhibitory concentration (MIC) Sa 23 [10] | MIC [11] [µg/mL] | Minimum inhibitory concentration (MIC) Efs 12 [12] | MIC [13] [µg/mL] | MIC [14] [µg/mL] | MIC [12] [µg/mL] |
| --- | --- | --- | --- | --- | --- | --- | --- | --- | --- | --- | --- | --- | --- | --- | --- | --- | --- |
| Oc1ccc(-c2nc(-c3cc(C(F)(F)F)cc(C(F)(F)F)c3)cs2)cc1O [Compound 10, 4-(4-(3,5-bis(trifluoromethyl)phenyl)thiazol-2-yl)benzene-1,2-diol] | 2 (≈ 4.93 µM) | 2 (≈ 4.93 µM) | 8 (≈ 19.7 µM) | 2 (≈ 4.93 µM) | 2 (≈ 4.93 µM) | 2, 2, 2 μg/mL | 2 (≈ 4.93 µM) | 4 (≈ 9.87 µM) | 8 (≈ 19.7 µM) | 2 (≈ 4.93 µM) | 2 (≈ 4.93 µM) | 1 µg/mL and 2 µg/mL | 8 (≈ 19.7 µM) | 16 µg/mL and 2 µg/mL and 8 µg/mL | 8 (≈ 19.7 µM) | 2 (≈ 4.93 µM) | – |
| Oc1ccc(-c2nc(-c3ccc(F)c(Cl)c3)cs2)cc1O [Compound 21, 4-(4-(3-chloro-4-fluorophenyl)thiazol-2-yl)benzene-1,2-diol] | 4 (≈ 12.4 µM) | 4 (≈ 12.4 µM) | 16 (≈ 49.7 µM) | 8 (≈ 24.9 µM) | 8 (≈ 24.9 µM) | – | – | 4 (≈ 12.4 µM) | 8 (≈ 24.9 µM) | 4 (≈ 12.4 µM) | 8 (≈ 24.9 µM) | – | 16 (≈ 49.7 µM) | – | 16 (≈ 49.7 µM) | 8 (≈ 24.9 µM) | 16 (≈ 49.7 µM) |
| Oc1ccc(-c2nc(-c3ccc(Cl)c(Cl)c3)cs2)cc1O [Compound 31, 4-(4-(3,4-dichlorophenyl)thiazol-2-yl)benzene-1,2-diol] | 4 (≈ 11.8 µM) | 4 (≈ 11.8 µM) | 16 (≈ 47.3 µM) | 4 (≈ 11.8 µM) | 4 (≈ 11.8 µM) | – | – | 4 (≈ 11.8 µM) | 4 (≈ 11.8 µM) | 4 (≈ 11.8 µM) | 4 (≈ 11.8 µM) | – | 16 (≈ 47.3 µM) | – | 16 (≈ 47.3 µM) | 4 (≈ 11.8 µM) | 16 (≈ 47.3 µM) |
| Oc1ccc(-c2nc(-c3ccc(Cl)cc3Cl)cs2)cc1 [Compound 34, 4-(4-(2,4-dichlorophenyl)thiazol-2-yl)phenol] | 4 (≈ 12.4 µM) | 4 (≈ 12.4 µM) | 4 (≈ 12.4 µM) | 4 (≈ 12.4 µM) | 4 (≈ 12.4 µM) | – | – | 4 (≈ 12.4 µM) | 4 (≈ 12.4 µM) | 4 (≈ 12.4 µM) | 4 (≈ 12.4 µM) | – | 8 (≈ 24.8 µM) | – | 8 (≈ 24.8 µM) | 4 (≈ 12.4 µM) | 8 (≈ 24.8 µM) |
| Oc1ccc(-c2nc(-c3ccc(C(F)(F)F)cc3)cs2)cc1 [Compound 39, 4-(4-(4(trifluoromethyl)phenyl)thiazol-2-yl)phenol] | 4 (≈ 12.4 µM) | 4 (≈ 12.4 µM) | 4 (≈ 12.4 µM) | 4 (≈ 12.4 µM) | 4 (≈ 12.4 µM) | – | – | 4 (≈ 12.4 µM) | 2 (≈ 6.22 µM) | 4 (≈ 12.4 µM) | 2 (≈ 6.22 µM) | – | > 32 | – | 32 (≈ 99.6 µM) | 2 (≈ 6.22 µM) | > 32 |
| Oc1ccc(-c2nc(-c3ccc(Cl)c(Cl)c3)cs2)cc1 [Compound 41, 4-(4-(3,4-dichlorophenyl)thiazol-2-yl)phenol] | 1 (≈ 3.1 µM) | 2 (≈ 6.21 µM) | 4 (≈ 12.4 µM) | 1 (≈ 3.1 µM) | 1 (≈ 3.1 µM) | – | – | 1 (≈ 3.1 µM) | 1 (≈ 3.1 µM) | 2 (≈ 6.21 µM) | 1 (≈ 3.1 µM) | – | 2 (≈ 6.21 µM) | – | 2 (≈ 6.21 µM) | 1 (≈ 3.1 µM) | 2 (≈ 6.21 µM) |

Further lines, results first:

| MIC [1] [µg/mL] | MIC [2] [µg/mL] | MIC [3] [µg/mL] | MIC [4] [µg/mL] | MIC [5] [µg/mL] | Minimum inhibitory concentration (MIC) Sa 99 [5] | MIC [6] [µg/mL] | MIC [7] [µg/mL] | MIC [8] [µg/mL] | MIC [9] [µg/mL] | MIC [10] [µg/mL] | Minimum inhibitory concentration (MIC) Sa 23 [10] | MIC [11] [µg/mL] | Minimum inhibitory concentration (MIC) Efs 12 [12] | MIC [13] [µg/mL] | MIC [14] [µg/mL] | MIC [12] [µg/mL] | Compound |
| --- | --- | --- | --- | --- | --- | --- | --- | --- | --- | --- | --- | --- | --- | --- | --- | --- | --- |
| 4 (≈ 11.5 µM) | 8 (≈ 23 µM) | 16 (≈ 45.9 µM) | 8 (≈ 23 µM) | 2 (≈ 5.74 µM) | 2, 2, 2 μg/mL | 4 (≈ 11.5 µM) | 8 (≈ 23 µM) | 8 (≈ 23 µM) | 4 (≈ 11.5 µM) | 2 (≈ 5.74 µM) | 2, 2, 2 μg/mL | 16 (≈ 45.9 µM) | 16 μg/mL (2×) and 2 μg/mL | 16 (≈ 45.9 µM) | 8 (≈ 23 µM) | – | Oc1ccc(-c2nc(-c3ccc(Br)cc3)cs2)cc1O [Compound 5, 4-(4-(4-bromophenyl)thiazol-2-yl)benzene-1,2-diol] |
| 4 (≈ 11.9 µM) | 4 (≈ 11.9 µM) | 8 (≈ 23.7 µM) | 8 (≈ 23.7 µM) | 2 (≈ 5.93 µM) | 2, 2, 2 μg/mL | 8 (≈ 23.7 µM) | 4 (≈ 11.9 µM) | 8 (≈ 23.7 µM) | 4 (≈ 11.9 µM) | 2 (≈ 5.93 µM) | 2, 2, 2 μg/mL | 16 (≈ 47.4 µM) | 16 µg/mL and 2 µg/mL and 8 µg/mL | 16 (≈ 47.4 µM) | 4 (≈ 11.9 µM) | – | Oc1ccc(-c2nc(-c3ccc(C(F)(F)F)cc3)cs2)cc1O [Compound 9, 4-(4-(4-(trifluoromethyl)phenyl)thiazol-2-yl)benzene-1,2-diol] |
| 2 (≈ 5.14 µM) | 2 (≈ 5.14 µM) | 2 (≈ 5.14 µM) | 2 (≈ 5.14 µM) | 2 (≈ 5.14 µM) | – | – | 2 (≈ 5.14 µM) | 2 (≈ 5.14 µM) | 2 (≈ 5.14 µM) | 2 (≈ 5.14 µM) | – | 2 (≈ 5.14 µM) | – | 2 (≈ 5.14 µM) | 2 (≈ 5.14 µM) | 2 (≈ 5.14 µM) | Oc1ccc(-c2nc(-c3cc(C(F)(F)F)cc(C(F)(F)F)c3)cs2)cc1 [Compound 36, 4-(4-(3,5-bis(trifluoromethyl)phenyl)thiazol-2-yl)phenol] |
| 4 (≈ 13.9 µM) | 4 (≈ 13.9 µM) | 4 (≈ 13.9 µM) | 4 (≈ 13.9 µM) | 4 (≈ 13.9 µM) | – | – | 4 (≈ 13.9 µM) | 4 (≈ 13.9 µM) | 4 (≈ 13.9 µM) | 4 (≈ 13.9 µM) | – | 8 (≈ 27.8 µM) | – | 8 (≈ 27.8 µM) | 4 (≈ 13.9 µM) | 8 (≈ 27.8 µM) | Oc1ccc(-c2nc(-c3cccc(Cl)c3)cs2)cc1 [Compound 38, 4-(4-(3-chlorophenyl)thiazol-2-yl)phenol] |
